The CheMixHub ionic liquid set

Test: xn = mol fraction of the nth substance listed

CCCCCCCCCCCCCC[P+](CCCCCC)(CCCCCC)CCCCCC.[c-]1nc[nH]n1 + CCCCCC[n+]1ccn(C)c1.O=S(=O)([N-]S(=O)(=O)C(F)(F)F)C(F)(F)F
viscosity [mPa·s], 100 kPa
Conditions	278.15 K	283.15 K	288.15 K	293.15 K	298.15 K	303.15 K	308.15 K	313.15 K	318.15 K	323.15 K
x2 = 0.1	5162	3302	2162	1458	1013	720	524	389	296	229
x2 = 0.195	4777	3062	2000	1349	930	664	484	359	273	211
x2 = 0.282	4094	2612	1719	1162	810	579	422	314	239	185
x2 = 0.378	3093	1992	1317	900	633	456	337	253	194	152
x2 = 0.493	2209	1445	970	677	485	355	267	204	159	127
x2 = 0.6	1397	940	641	452	329	245	186	145	115	93
x2 = 0.693	910	619	431	308	227	171	132	104	83	67
x2 = 0.792	612	424	301	220	165	127	99	79	64	53
x2 = 0.893	325	235	174	132	103	81	65	54	–	–

CO + CCCC[N+]1(C)CCCC1.O=S(=O)([N-]S(=O)(=O)C(F)(F)F)C(F)(F)F
Conditions	viscosity [mPa·s]
293.15 K, 101 kPa, x2 = 0	0.74

CCC(O)CO (stereo not given) + CCCC[N+](C)(C)C.O=S(=O)([N-]S(=O)(=O)C(F)(F)F)C(F)(F)F
Conditions	viscosity [mPa·s]
328.15 K, 101 kPa, x1 = 1	10.3
